Measured values reported in ChEMBL document CHEMBL6074621, “Recent advances of honokiol:pharmacological activities, manmade derivatives and structure-activity relationship” (Eur J Med Chem, 2024).

Assays:
Homo sapiens = species on record: Homo sapiens; test: Inhibition of human pancreatic lipase at 10 uM relative to control
SMMC-7721 = test: Antiproliferative activity against human SMMC-7721 cells; format: functional, cell-based
L02 = test: Antiproliferative activity against human LO2 cells; format: functional, cell-based
HCT-116 = test: Antiproliferative activity against human HCT-116 cells assessed as reduction in cell growth after 72 hrs by MTT assay; format: functional, cell-based; conditions: HCT-116, 72 h
PC-3 = test: Antiproliferative activity against human PC-3 cells assessed as reduction in cell growth after 72 hrs by MTT assay; format: functional, cell-based; conditions: PC-3, 72 h
HT-29 = test: Antiproliferative activity against human HT-29 cells assessed as reduction in cell growth after 72 hrs by MTT assay; format: functional, cell-based; conditions: HT-29, 72 h

With `C/C(Cc1ccc(O)c(-c2ccc3oc(C)cc3c2)c1)=N\NC(=O)c1ccc(O)cc1` the inhibition (Homo sapiens) was 81%.
`C=CCc1cc(CN2CCC(N)CC2)c(O)c(-c2cc(CC=C)c(O)c(CN3CCC(N)CC3)c2)c1` showed an IC50 (SMMC-7721) of 13.1 µM and an IC50 (L02) of 18 µM.
For `C=CCc1cc(CC=C)c(O)c(-c2cc(CC=C)c(O)c(CC=C)c2)c1`, the IC50 (HCT-116) was 9.8 µM, the IC50 (PC-3) was 19.8 µM and the IC50 (HT-29) was 11.1 µM.
